Assays:
[1] = test system: ur(−) S. thermophilus; experiment: Acidification of milk by S. thermophilus with or without sodium formate (Example 2); type: cell-based; details: 10 ppm sodium formate, 2% milk, 40° C., no Lactococci, 350 minutes
Method: Samples of 2% milk taken from the same source were treated with ur(+) S. thermophilus without formate, ur(−) S. thermophilus without formate, and ur(−) S. thermophilus with 10 ppm sodium formate. Lactoccocci bacteria were not used. The milk was maintained at 40° C., and pH measurements were taken for 350 minutes.
FIG. 2 is a graph showing exemplary results from this experiment.

[2] = test system: urease enzyme; experiment: Floating curd experiment in test tubes (Example 3); details: Lactococci + ur(+) S. thermophilus + urease inhibitor, fermented at 35° C. to pH 4.65, heated at about 66° C. (test tube 3)
Method: Four experiments were conducted in which milk was treated with various bacteria. In experiment 1, only Lactococci bacteria were added. In experiment 2, a blend of Lactococci bacteria and ur(+) S. thermophilus bacteria were added. In experiment 3, a blend of Lactococci bacteria, ur(+) S. thermophilus bacteria, and the urease inhibitor flurofamide were added. In experiment 4, only ur(+) S. thermophilus bacteria were added.
In each experiment, the milk was fermented with the bacteria at 35° C. until the cheese reached a pH of 4.65. A sample of the cheese was placed into a test tube, which was heated at about 66° C. for about 10 minutes. After 10 minutes of heating, a small pipette or thin wire was used to agitate the sample. The samples were held at about 66° C. for another ten minutes, at which time the photograph of the test tubes depicted in FIG. 3, was taken.
Test tube 4 is a positive control that contains ur(+) S. thermophilus, which has urease enzymes that can hydrolyze urea in milk.

Row | Structure (SMILES) | pH decrease effected by the ur(−) S. thermophilus [1] | floating curd [2]
1 | O=C[O-].[Na+] [sodium formate] | significantly accelerated | –
2 | NP(N)(=O)NC(=O)c1ccc(F)cc1 [flurofamide] | – | no floating curd
